Results from PubChem BioAssay AID258 (DTP/NCI, 2004).
Toxic doses and inconclusive results are not listed.

Tested on: CD2F1 mice, L1210 leukemia sc, survival T/C
Assay: NCI In Vivo Anticancer Drug Screen. Data for tumor model L1210 Leukemia (subcutaneous) in CD2F1 (CDF1) mice
Details: endpoint: median survival time, higher = longer survival
In short: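 Mice with transplanted tumor dosed; survival/tumor size read; T/C vs vehicle controls.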

**Q.** What does the source list for `C1CN1c1nc(N2CC2)nc(N2CC2)n1`?
**A.** T/C (dose: 0.1 mg/kg/injection, schedule: Q01DX009 (ip), vehicle: saline): 110 % of control; T/C (dose: 0.1 mg/kg/injection, schedule: Q01DX009 (sc), vehicle: saline): 108 % of control; T/C (dose: 0.2 mg/kg/injection, schedule: Q01DX009 (ip), vehicle: saline): 117 % of control; T/C (dose: 0.2 mg/kg/injection, schedule: Q01DX009 (sc), vehicle: saline): 118 % of control; T/C (dose: 0.27 mg/kg/injection, schedule: Q01DX009 (ip), vehicle: saline): 114 % of control; T/C (dose: 0.27 mg/kg/injection, schedule: Q01DX009 (sc), vehicle: saline): 110 % of control; T/C (dose: 0.4 mg/kg/injection, schedule: Q01DX009 (ip), vehicle: saline): 151 % of control; T/C (dose: 0.45 mg/kg/injection, schedule: Q01DX009 (ip), vehicle: saline): 157 % of control; T/C (dose: 0.45 mg/kg/injection, schedule: Q01DX009 (sc), vehicle: saline): 168 % of control; T/C (dose: 0.6 mg/kg/injection, schedule: Q01DX009 (ip), vehicle: saline): 184 % of control; T/C (dose: 0.6 mg/kg/injection, schedule: Q01DX009 (sc), vehicle: saline): 180 % of control; T/C (dose: 0.8 mg/kg/injection, schedule: Q01DX009 (ip), vehicle: saline): 119 % of control; T/C (dose: 0.9 mg/kg/injection, schedule: Q01DX009 (ip), vehicle: saline): 101 % of control; T/C (dose: 0.9 mg/kg/injection, schedule: Q01DX009 (sc), vehicle: saline): 113 % of control

**Q.** Which T/C (dose: 833.0 mg/kg/injection, schedule: Q01DX Z (sc), vehicle: methylcellulose (MC)) does the source give for `CCn1cnc2c(=S)nc[nH]c21` here?
**A.** 120 % of control

**Q.** Which results are given for `O=C(CSc1ncnc2nc[nH]c12)c1ccccc1`?
**A.** T/C (dose: 38.9 mg/kg/injection, schedule: Q01DX Z (sc), vehicle: methylcellulose (MC)): 95 % of control; T/C (dose: 64.8 mg/kg/injection, schedule: Q01DX Z (sc), vehicle: methylcellulose (MC)): 95 % of control; T/C (dose: 108.0 mg/kg/injection, schedule: Q01DX Z (sc), vehicle: methylcellulose (MC)): 100 % of control; T/C (dose: 180.0 mg/kg/injection, schedule: Q01DX Z (sc), vehicle: methylcellulose (MC)): 100 % of control; T/C (dose: 300.0 mg/kg/injection, schedule: Q01DX Z (sc), vehicle: methylcellulose (MC)): 100 % of control; T/C (dose: 500.0 mg/kg/injection, schedule: Q01DX Z (sc), vehicle: methylcellulose (MC)): 100 % of control

**Q.** With `Cc1c(-c2ccc(-c3ccccc3F)cc2)nc2ccc(F)cc2c1C(=O)O` as the compound, how does the T/C (dose: 12.5 mg/kg/injection, schedule: Q01DX009 (ip), vehicle: saline) read?
**A.** 153 % of control

**Q.** And the T/C (dose: 25.0 mg/kg/injection, schedule: Q01DX009 (ip), vehicle: saline)?
**A.** 156 % of control

**Q.** What about the T/C (dose: 50.0 mg/kg/injection, schedule: Q01DX009 (ip), vehicle: saline) of the same compound?
**A.** 150 % of control

**Q.** `N#Cc1c(-c2ccc(F)cc2)c(-c2ccc(F)cc2)nn(CCO)c1=O` was tested. Which T/C (dose: 108.0 mg/kg/injection, schedule: Q01DX005 (ip), vehicle: distilled water + Tween-80 + alcohol) did it give?
**A.** 109 % of control

**Q.** What about the T/C (dose: 180.0 mg/kg/injection, schedule: Q01DX005 (ip), vehicle: distilled water + Tween-80 + alcohol) of the same compound?
**A.** 113 % of control

**Q.** What about the T/C (dose: 300.0 mg/kg/injection, schedule: Q01DX005 (ip), vehicle: distilled water + Tween-80 + alcohol) of the same compound?
**A.** 113 % of control

**Q.** And the T/C (dose: 833.0 mg/kg/injection, schedule: Q01DX005 (ip), vehicle: distilled water + Tween-80 + alcohol)?
**A.** 178 % of control

**Q.** What does the source list for `Nc1nc(N)c2cc(CCc3ccc(C(=O)NC(CCC(=O)O)C(=O)O)cc3)ccc2n1` (configuration not stated)?
**A.** T/C (dose: 0.04 mg/kg/injection, schedule: Q01DX009 (ip), vehicle: Klucel (hydroxypropylcellulose) (HPC)): 98 % of control; T/C (dose: 0.08 mg/kg/injection, schedule: Q01DX009 (ip), vehicle: Klucel (hydroxypropylcellulose) (HPC)): 102 % of control; T/C (dose: 0.16 mg/kg/injection, schedule: Q01DX009 (ip), vehicle: Klucel (hydroxypropylcellulose) (HPC)): 105 % of control; T/C (dose: 0.63 mg/kg/injection, schedule: Q01DX009 (ip), vehicle: Klucel (hydroxypropylcellulose) (HPC)): 89 % of control

**Q.** With `Nc1nc2c(c(=O)[nH]1)NC(CCNc1ccc(C(=O)NC(CCC(=O)O)C(=O)O)cc1)CN2` (configuration not stated) as the compound, how does the T/C (dose: 25.0 mg/kg/injection, schedule: Q03HX Z (ip), vehicle: other) read?
**A.** 120 % of control

**Q.** What about the T/C (dose: 50.0 mg/kg/injection, schedule: Q03HX Z (ip), vehicle: other) of the same compound?
**A.** 120 % of control

**Q.** And the T/C (dose: 100.0 mg/kg/injection, schedule: Q01DX Z (ip), vehicle: other)?
**A.** 120 % of control

**Q.** What about the T/C (dose: 100.0 mg/kg/injection, schedule: Q04DX Z (ip), vehicle: other) of the same compound?
**A.** 100 % of control

**Q.** What about the T/C (dose: 200.0 mg/kg/injection, schedule: Q04DX Z (ip), vehicle: other) of the same compound?
**A.** 100 % of control

**Q.** What about the T/C (dose: 800.0 mg/kg/injection, schedule: Q01DX Z (ip), vehicle: other) of the same compound?
**A.** 100 % of control

**Q.** With `Nc1ncnc2c1ncn2C(C=O)OC(C=O)CO` (configuration not stated) as the compound, how does the T/C (dose: 14.0 mg/kg/injection, schedule: Q01DX Z (sc), vehicle: carboxymethylcellulose (CMC)) read?
**A.** 100 % of control

**Q.** And the T/C (dose: 23.0 mg/kg/injection, schedule: Q01DX Z (sc), vehicle: carboxymethylcellulose (CMC))?
**A.** 105 % of control

**Q.** What about the T/C (dose: 39.0 mg/kg/injection, schedule: Q01DX Z (sc), vehicle: carboxymethylcellulose (CMC)) of the same compound?
**A.** 100 % of control

**Q.** And the T/C (dose: 108.0 mg/kg/injection, schedule: Q01DX Z (sc), vehicle: carboxymethylcellulose (CMC))?
**A.** 111 % of control

**Q.** And the T/C (dose: 180.0 mg/kg/injection, schedule: Q01DX Z (sc), vehicle: carboxymethylcellulose (CMC))?
**A.** 100 % of control

**Q.** How did the T/C (dose: 0.5 mg/kg/injection, schedule: Q01DX Z (sc), vehicle: methylcellulose (MC)) turn out when `CCN(CC)c1ccc2cc3ccc(=[N+](CC)CC)cc-3oc2c1` was run?
**A.** 100 % of control

**Q.** What about the T/C (dose: 1.0 mg/kg/injection, schedule: Q01DX Z (sc), vehicle: methylcellulose (MC)) of the same compound?
**A.** 100 % of control

**Q.** And the T/C (dose: 2.0 mg/kg/injection, schedule: Q01DX Z (sc), vehicle: methylcellulose (MC))?
**A.** 100 % of control

**Q.** And the T/C (dose: 4.0 mg/kg/injection, schedule: Q01DX Z (sc), vehicle: methylcellulose (MC))?
**A.** 100 % of control

**Q.** What about the T/C (dose: 8.0 mg/kg/injection, schedule: Q01DX Z (sc), vehicle: methylcellulose (MC)) of the same compound?
**A.** 100 % of control

**Q.** Which results are given for `COC(=O)C1(F)C(=O)NC(=O)NC1OC` (configuration not stated)?
**A.** T/C (dose: 50.0 mg/kg/injection, schedule: Q01DX009 (ip), vehicle: Klucel (hydroxypropylcellulose) (HPC)): 110 % of control; T/C (dose: 100.0 mg/kg/injection, schedule: Q01DX009 (ip), vehicle: Klucel (hydroxypropylcellulose) (HPC)): 120 % of control; T/C (dose: 120.0 mg/kg/injection, schedule: Q01DX009 (ip), vehicle: Klucel (hydroxypropylcellulose) (HPC)): 163 % of control; T/C (dose: 200.0 mg/kg/injection, schedule: Q01DX009 (ip), vehicle: Klucel (hydroxypropylcellulose) (HPC)): 159 % of control; T/C (dose: 333.33 mg/kg/injection, schedule: Q01DX009 (ip), vehicle: Klucel (hydroxypropylcellulose) (HPC)): 120 % of control; T/C (dose: 400.0 mg/kg/injection, schedule: Q01DX009 (ip), vehicle: Klucel (hydroxypropylcellulose) (HPC)): 105 % of control; T/C (dose: 555.56 mg/kg/injection, schedule: Q01DX009 (ip), vehicle: Klucel (hydroxypropylcellulose) (HPC)): 110 % of control; T/C (dose: 800.0 mg/kg/injection, schedule: Q01DX009 (ip), vehicle: Klucel (hydroxypropylcellulose) (HPC)): 98 % of control

**Q.** `CC1CN1CCS(=O)(=O)CCN1CC1C` (configuration not stated) was tested. Which T/C (dose: 0.17 mg/kg/injection, schedule: Q01DX Z (sc), vehicle: other) did it give?
**A.** 100 % of control

**Q.** And the T/C (dose: 2.16 mg/kg/injection, schedule: Q01DX Z (sc), vehicle: other)?
**A.** 100 % of control

**Q.** What about the T/C (dose: 3.6 mg/kg/injection, schedule: Q01DX Z (sc), vehicle: other) of the same compound?
**A.** 122 % of control

**Q.** And the T/C (dose: 6.0 mg/kg/injection, schedule: Q01DX Z (sc), vehicle: other)?
**A.** 122 % of control

**Q.** With `CO[C@H](/C(C)=C/C=C/C(C)=C/c1coc(C)n1)[C@H](C)[C@H]1C[C@@H](O)[C@@]2(C)O[C@H]2/C=C/[C@@H](C)[C@@H]2C[C@@H](CC(=O)O2)C[C@H]2O[C@@H]2C(=O)O1` as the compound, how does the T/C (dose: 0.25 mg/kg/injection, schedule: Q01DX009 (ip), vehicle: Klucel (hydroxypropylcellulose) (HPC)) read?
**A.** 107 % of control

**Q.** What about the T/C (dose: 1.0 mg/kg/injection, schedule: Q01DX009 (ip), vehicle: Klucel (hydroxypropylcellulose) (HPC)) of the same compound?
**A.** 119 % of control
